From ChEMBL document CHEMBL5137080, “Discovery of Novel 7-Hydroxy-5-oxo-4,5-dihydrothieno[3,2-b]pyridine-6-carboxamide Derivatives with Potent and Selective Antifungal Activity against Cryptococcus Species” (J Med Chem, 2022)

Experiments:
[Candida] auris [1] = Antifungal activity against Candida auris CBS 12372 assessed as fungal growth inhibition incubated for 48 hrs in presence of Fluconazole by broth microdilution method; format: functional; settings: Candidozyma auris
Cryptococcus neoformans [2] = assay: Antifungal activity against Cryptococcus neoformans clinical isolate HN1 assessed as fungal growth inhibition incubated for 72 hrs in presence of Fluconazole by broth microdilution method; format: functional
[3] = system: Cryptococcus gattii species complex; assay: Antifungal activity against Cryptococcus gattii clinical isolate SCZ20024 assessed as fungal growth inhibition incubated for 72 hrs in presence of Fluconazole by broth microdilution method; format: functional
Cryptococcus neoformans [4] = assay: Synergistic antifungal activity against Cryptococcus neoformans H99 assessed as fractional inhibitory concentration index incubated for 72 hrs in presence of Fluconazole by broth microdilution method; format: functional
Cryptococcus gattii = assay: Synergistic antifungal activity against Cryptococcus gattii WM179 assessed as fractional inhibitory concentration index incubated for 72 hrs in presence of Fluconazole by broth microdilution method; format: functional, Cryptococcus gattii species complex
Candida albicans [5] = assay: Synergistic antifungal activity against Candida albicans SC5314 assessed as fractional inhibitory concentration index incubated for 48 hrs in presence of Fluconazole by broth microdilution method; format: functional
[Candida] auris [6] = Synergistic antifungal activity against Candida auris CBS 12372 assessed as fractional inhibitory concentration index incubated for 48 hrs in presence of Fluconazole by broth microdilution method; format: functional, Candidozyma auris
Nakaseomyces glabratus [7] = assay: Synergistic antifungal activity against Candida glabrata ATCC1182 assessed as fractional inhibitory concentration index incubated for 48 hrs in presence of Fluconazole by broth microdilution method; format: functional
Cryptococcus neoformans [8] = assay: Synergistic antifungal activity against Cryptococcus neoformans clinical isolate HN2-40 assessed as fractional inhibitory concentration index incubated for 72 hrs in presence of Fluconazole by broth microdilution method; format: functional
Cryptococcus neoformans [9] = assay: Synergistic antifungal activity against Cryptococcus neoformans clinical isolate HN17 assessed as fractional inhibitory concentration index incubated for 72 hrs in presence of Fluconazole by broth microdilution method; format: functional
Cryptococcus neoformans [10] = assay: Synergistic antifungal activity against Cryptococcus neoformans clinical isolate BJ3 assessed as fractional inhibitory concentration index incubated for 72 hrs in presence of Fluconazole by broth microdilution method; format: functional
Cryptococcus neoformans [11] = assay: Synergistic antifungal activity against Cryptococcus neoformans clinical isolate SH68 assessed as fractional inhibitory concentration index incubated for 72 hrs in presence of Fluconazole by broth microdilution method; format: functional
Cryptococcus neoformans [12] = assay: Synergistic antifungal activity against Cryptococcus neoformans clinical isolate 443 assessed as fractional inhibitory concentration index incubated for 72 hrs in presence of Fluconazole by broth microdilution method; format: functional
Cryptococcus neoformans [13] = assay: Synergistic antifungal activity against Cryptococcus neoformans clinical isolate 444 assessed as fractional inhibitory concentration index incubated for 72 hrs in presence of Fluconazole by broth microdilution method; format: functional
Cryptococcus neoformans [14] = assay: Antifungal activity against Cryptococcus neoformans H99 assessed as reduction on fungal growth at 2 ug/ml incubated for 48 hrs by plate reader assay; format: functional; parameters: scale not given: the % may be the effect or the level left; settings: dose 2 µg/ml
Cryptococcus neoformans [15] = assay: Antifungal activity against Cryptococcus neoformans H99 infected in Wax moth larvae assessed as survival rate at 10 mg/kg measured after 9 days in presence of Fluconazole by Kaplan-Meier method; format: functional; settings: H99, 216 h, time 9 day
[16] = Cmax in Sprague-Dawley rat at 5 mg/kg,po by LC-MS/MS analysis; format: ADME, organism-based; parameters: dose 5 mg/kg, route po; settings: in vivo
[17] = Tmax in Sprague-Dawley rat at 5 mg/kg,po by LC-MS/MS analysis; format: ADME, organism-based; settings: in vivo
[18] = MRT (0 to t) in Sprague-Dawley rat at 5 mg/kg,po by LC-MS/MS analysis; format: ADME, organism-based; settings: in vivo
[19] = Oral bioavailability in Sprague-Dawley rat at 5 mg/kg by LC-MS/MS analysis; format: ADME, organism-based; settings: in vivo
[20] = Cytotoxicity against human Caco-2 cells assessed as cell growth inhibition incubated for 24 hrs by CCK-8 assay; format: toxicity, cell-based
[21] = Selectivity index, ratio of IC50 for rabbit RBC to MIC for antifungal activity against Cryptococcus neoformans; format: toxicity; settings: red blood cells, read-out: Selectivity Index
Candida albicans [22] = assay: Antifungal activity against Candida albicans SC5314 assessed as fungal growth inhibition incubated for 48 hrs in presence of P163-0892 by broth microdilution method; format: functional
[Candida] auris [23] = Antifungal activity against Candida auris CBS 12372 assessed as fungal growth inhibition incubated for 48 hrs in presence of P163-0892 by broth microdilution method; format: functional; settings: Candidozyma auris
Nakaseomyces glabratus [24] = assay: Antifungal activity against Candida glabrata ATCC1182 assessed as fungal growth inhibition incubated for 48 hrs in presence of P163-0892 by broth microdilution method; format: functional
Pichia kudriavzevii = assay: Antifungal activity against Candida krusei ATCC2340 assessed as fungal growth inhibition incubated for 48 hrs in presence of P163-0892 by broth microdilution method; format: functional
Cryptococcus neoformans [25] = assay: Antifungal activity against Cryptococcus neoformans clinical isolate HN1 assessed as fungal growth inhibition incubated for 72 hrs in presence of P163-0892 by broth microdilution method; format: functional
Cryptococcus neoformans [26] = assay: Antifungal activity against Cryptococcus neoformans clinical isolate HN19 assessed as fungal growth inhibition incubated for 72 hrs in presence of P163-0892 by broth microdilution method; format: functional
Cryptococcus neoformans [27] = assay: Antifungal activity against Cryptococcus neoformans clinical isolate HN20 assessed as fungal growth inhibition incubated for 72 hrs in presence of P163-0892 by broth microdilution method; format: functional
Candida albicans [28] = assay: Synergistic antifungal activity against Candida albicans SC5314 assessed as fractional inhibitory concentration index incubated for 48 hrs in presence of P163-0892 by broth microdilution method; format: functional
Cryptococcus neoformans [29] = assay: Synergistic antifungal activity against Cryptococcus neoformans clinical isolate 56992 assessed as fractional inhibitory concentration index incubated for 72 hrs in presence of P163-0892 by broth microdilution method; format: functional
Cryptococcus neoformans [30] = assay: Synergistic antifungal activity against Cryptococcus neoformans clinical isolate HN1 assessed as fractional inhibitory concentration index incubated for 72 hrs in presence of P163-0892 by broth microdilution method; format: functional
Cryptococcus neoformans [31] = assay: Synergistic antifungal activity against Cryptococcus neoformans clinical isolate HN2 assessed as fractional inhibitory concentration index incubated for 72 hrs in presence of P163-0892 by broth microdilution method; format: functional
Cryptococcus neoformans [32] = assay: Synergistic antifungal activity against Cryptococcus neoformans clinical isolate HN2-40 assessed as fractional inhibitory concentration index incubated for 72 hrs in presence of P163-0892 by broth microdilution method; format: functional
Cryptococcus neoformans [33] = assay: Synergistic antifungal activity against Cryptococcus neoformans clinical isolate HN15 assessed as fractional inhibitory concentration index incubated for 72 hrs in presence of P163-0892 by broth microdilution method; format: functional
Cryptococcus neoformans [34] = assay: Synergistic antifungal activity against Cryptococcus neoformans clinical isolate HN17 assessed as fractional inhibitory concentration index incubated for 72 hrs in presence of P163-0892 by broth microdilution method; format: functional
Cryptococcus neoformans [35] = assay: Synergistic antifungal activity against Cryptococcus neoformans clinical isolate 445 assessed as fractional inhibitory concentration index incubated for 72 hrs in presence of P163-0892 by broth microdilution method; format: functional
Cryptococcus neoformans [36] = assay: Antifungal activity against Cryptococcus neoformans H99 infected in Wax moth larvae assessed as reduction on fungal burden at 10 mg/kg measured after 9 days in presence of P163-0892 by 10 fold serial dilution method; format: functional; settings: time 9 day
[37] = system: Cryptococcus deuterogattii; assay: Antifungal activity against Cryptococcus gattii WM178 infected in Wax moth larvae assessed as survival rate at 10 mg/kg measured after 9 days in presence of P163-0892 by Kaplan-Meier method; format: functional, Cryptococcus gattii species complex; settings: WM178, 216 h, time 9 day

Compound `CCCCNC(=O)c1c(O)c2sccc2n(Cc2ccccc2)c1=O` has an MIC ([Candida] auris [1]) of 1 µg/mL, an MIC (Cryptococcus neoformans [2]) of 0.0313 µg/mL and an MIC [3] of 0.0313 µg/mL. The “fractional inhibitory concentration index (FICI)” value (Cryptococcus neoformans [4]) was 0.375, the “fractional inhibitory concentration index (FICI)” value (Cryptococcus gattii) was 0.25 and the “fractional inhibitory concentration index (FICI)” value (Candida albicans [5]) was 1.008. The “fractional inhibitory concentration index (FICI)” value ([Candida] auris [6]) was 1.008, the “fractional inhibitory concentration index (FICI)” value (Nakaseomyces glabratus [7]) was 0.625 and the “fractional inhibitory concentration index (FICI)” value (Cryptococcus neoformans [8]) was 0.188. The “fractional inhibitory concentration index (FICI)” value (Cryptococcus neoformans [9]) was 0.156, the “fractional inhibitory concentration index (FICI)” value (Cryptococcus neoformans [10]) was 0.188 and the “fractional inhibitory concentration index (FICI)” value (Cryptococcus neoformans [11]) was 0.25. The “fractional inhibitory concentration index (FICI)” value (Cryptococcus neoformans [12]) was 0.156, the “fractional inhibitory concentration index (FICI)” value (Cryptococcus neoformans [13]) was 0.156 and the Activity (Cryptococcus neoformans [14]) was 46.8%. For the same compound, the survival at 10 mg/kg (Cryptococcus neoformans [15]) was 65%, the Cmax [16] was 2.97 ng/mL and the Tmax [17] was 3.17 min. For the same compound, the MRT last [18] was 3.83 h, the bioavailability [19] was 0.8% and the IC50 at 24 h [20] was over 256 µg/mL. For the same compound, the selectivity ratio [21] was over 256.

Compound `OC(Cn1cncn1)(Cn1cncn1)c1ccc(F)cc1F` [FLUCONAZOLE] has an MIC (Candida albicans [22]) of 1 µg/mL, an MIC ([Candida] auris [23]) of over 64 µg/mL and an MIC (Nakaseomyces glabratus [24]) of 4 µg/mL. It also gave an MIC (Pichia kudriavzevii) of 32 µg/mL, an MIC (Cryptococcus neoformans [25]) of 0.125 µg/mL and an MIC (Cryptococcus neoformans [26]) of 1 µg/mL. For the same compound, the MIC (Cryptococcus neoformans [27]) was 0.0625 µg/mL, the “fractional inhibitory concentration index (FICI)” value (Candida albicans [28]) was 1.008 and the “fractional inhibitory concentration index (FICI)” value (Cryptococcus neoformans [29]) was 0.25. The “fractional inhibitory concentration index (FICI)” value (Cryptococcus neoformans [30]) was 0.125, the “fractional inhibitory concentration index (FICI)” value (Cryptococcus neoformans [31]) was 0.188 and the “fractional inhibitory concentration index (FICI)” value (Cryptococcus neoformans [32]) was 0.188. The “fractional inhibitory concentration index (FICI)” value (Cryptococcus neoformans [33]) was 0.313, the “fractional inhibitory concentration index (FICI)” value (Cryptococcus neoformans [34]) was 0.156 and the “fractional inhibitory concentration index (FICI)” value (Cryptococcus neoformans [35]) was 0.375. For the same compound, the Activity (Cryptococcus neoformans [36]) was 4.8 log10CFU/g and the survival at 10 mg/kg [37] was 70%.
